Assay results: US8940304B2, “Monoclonal antibodies against the PBP2-A protein and homologous sequences for the treatment of infections by and immunodiagnostics of bacteria of the firmicutes phylum” (priority 2009, dated 2015)

Assays:
CEB-MRSA = test: Comparative in vivo protection antibody versus vancomycin, renal quantification, Assay I; design: species or system Staphylococcus aureus
Protocol: Four groups of female 8-week Balb/C mice (4 animals per group) received an infective dose of 6.0×10^7 bacteria (CEB-MRSA) by intraperitoneal route. The animals received doses of purified monoclonal antibody (MAB), vancomycin, MAB+vancomycin, and negative control, according to the groups below:
group 1: MAB (400 micrograms) (first day)
group 2: vancomycin (150 micrograms, intramuscular route, 12/12 hours)
group 3: vancomycin+MAB (350 micrograms) (1 day after infection)
The first doses of antibody and vancomycin were administered 4 hours after the administration of the infective dose. The animals were subjected to euthanasia in the fourth day, and the kidneys were aseptically removed and subjected to renal qualification, according to what was previously described.
In this study, the animals were infected and the administration of the antimicrobial or monoclonal antibodies was started just after four hours of infection. The study was conducted with three distinct groups: one treated with vancomycin, other treated with monoclonal antibodies, and a third one with simultaneous administration of antimicrobial+antibodies. Vancomycin doses were adjusted and administered in a way similar to the cases of infections in humans (500 mg every 12 hours).

CEB MRSA = test: Comparative in vivo protection antibody versus vancomycin, renal quantification, Assay II; design: species or system Staphylococcus aureus; conditions: antibody 500 μg
Protocol: This assay was performed in the same way as the previous one, but, with a lower infective dose (7.0×10^6 bacteria), with the group 1 being treated with 500 micrograms of purified monoclonal antibody; group 2 being treated with vancomycin (150 micrograms, intramuscular route, 12/12 hours; 5 doses); group 3 being treated with vancomycin+500 micrograms of monoclonal antibody; and group 4 being control (non-treated animals).

CN[C@H](CC(C)C)C(=O)N[C@H]1C(=O)N[C@@H](CC(N)=O)C(=O)N[C@H]2C(=O)N[C@H]3C(=O)N[C@H](C(=O)N[C@H](C(=O)O)c4cc(O)cc(O)c4-c4cc3ccc4O)[C@H](O)c3ccc(c(Cl)c3)Oc3cc2cc(c3O[C@@H]2O[C@H](CO)[C@@H](O)[C@H](O)[C@H]2O[C@H]2C[C@](C)(N)[C@H](O)[C@H](C)O2)Oc2ccc(cc2Cl)[C@H]1O [vancomycin]
reduction in the quantity of bacteria present in the kidneys versus non-treated animals (CEB-MRSA; Assay I: 6.0×10^7 bacteria CEB MRSA IP, treatment from 4 hours after infection, three days after infection, vancomycin every 12 hours (5 doses)): around 15 times | bacteria recovered from kidneys, mean of group (CEB-MRSA; Assay I: 6.0×10^7 bacteria CEB MRSA, antibody 400 μg, vancomycin 5 doses, antibody (300 μg)+vancomycin): 172,250 bacteria | bacteria recovered from kidneys, mean of group (CEB MRSA; Assay II: 7.0×10^6 bacteria CEB MRSA, vancomycin every 12 hours (5 doses), antibody (500 μg)+vancomycin): 720 bacteria | reduction of bacteria in kidneys versus non-treated animals (CEB MRSA; Assay II: lower infective dose 7.0×10^6 bacteria CEB MRSA, vancomycin 5 doses, combination): 35 times
